Measurements reported in the NIST ThermoML archive (doi:10.1016/j.jct.2016.10.016).
Numbers after ± are expanded uncertainties.

Assay: mn = molality of the nth substance listed, in mol/kg
Settings: 101.3 kPa, Liquid

COC(=O)[C@H](C)N.Cl [methyl L-alaninate hydrochloride] + O
Settings | speed of sound [m/s]
278.15 K, Frequency=2 MHz, Linear variable-path acoustic interferometer, m1 = 0.0501 | 1432 ± 2
278.15 K, Frequency=2 MHz, Linear variable-path acoustic interferometer, m1 = 0.0614 | 1432.9 ± 2
278.15 K, Frequency=2 MHz, Linear variable-path acoustic interferometer, m1 = 0.0701 | 1433.8 ± 2
278.15 K, Frequency=2 MHz, Linear variable-path acoustic interferometer, m1 = 0.082 | 1435.4 ± 2
278.15 K, Frequency=2 MHz, Linear variable-path acoustic interferometer, m1 = 0.091 | 1437.2 ± 2
278.15 K, Frequency=2 MHz, Linear variable-path acoustic interferometer, m1 = 0.1004 | 1437.6 ± 2
278.15 K, Frequency=2 MHz, Linear variable-path acoustic interferometer, m1 = 0.1099 | 1438.9 ± 2
278.15 K, Frequency=2 MHz, Linear variable-path acoustic interferometer, m1 = 0.1219 | 1440 ± 2
278.15 K, Frequency=2 MHz, Linear variable-path acoustic interferometer, m1 = 0.1296 | 1441.4 ± 2
278.15 K, Frequency=2 MHz, Linear variable-path acoustic interferometer, m1 = 0.1411 | 1442.6 ± 2
278.15 K, Frequency=2 MHz, Linear variable-path acoustic interferometer, m1 = 0.1515 | 1443.6 ± 2
278.15 K, Frequency=2 MHz, Linear variable-path acoustic interferometer, m1 = 0.1618 | 1444.4 ± 2
288.15 K, Frequency=3 MHz, Sing-around technique in a fixed-path interferometer, m1 = 0.0502 | 1470.7 ± 1.2
288.15 K, Frequency=3 MHz, Sing-around technique in a fixed-path interferometer, m1 = 0.0601 | 1471.8 ± 1.2
288.15 K, Frequency=3 MHz, Sing-around technique in a fixed-path interferometer, m1 = 0.07 | 1473.1 ± 1.2
288.15 K, Frequency=3 MHz, Sing-around technique in a fixed-path interferometer, m1 = 0.0801 | 1474.1 ± 1.2
288.15 K, Frequency=3 MHz, Sing-around technique in a fixed-path interferometer, m1 = 0.0901 | 1475.2 ± 1.2
288.15 K, Frequency=3 MHz, Sing-around technique in a fixed-path interferometer, m1 = 0.1003 | 1476.3 ± 1.2
288.15 K, Frequency=3 MHz, Sing-around technique in a fixed-path interferometer, m1 = 0.1101 | 1477.1 ± 1.2
288.15 K, Frequency=3 MHz, Sing-around technique in a fixed-path interferometer, m1 = 0.1202 | 1477.8 ± 1.2
288.15 K, Frequency=3 MHz, Sing-around technique in a fixed-path interferometer, m1 = 0.13 | 1478.9 ± 1.3
288.15 K, Frequency=3 MHz, Sing-around technique in a fixed-path interferometer, m1 = 0.1401 | 1480 ± 1.3
288.15 K, Frequency=3 MHz, Sing-around technique in a fixed-path interferometer, m1 = 0.1504 | 1481.1 ± 1.3
288.15 K, Frequency=3 MHz, Sing-around technique in a fixed-path interferometer, m1 = 0.1603 | 1482.2 ± 1.3
298.15 K, Frequency=3 MHz, Sing-around technique in a fixed-path interferometer, m1 = 0.0486 | 1500.6 ± 1.2
298.15 K, Frequency=3 MHz, Sing-around technique in a fixed-path interferometer, m1 = 0.0601 | 1502.2 ± 1.2
298.15 K, Frequency=3 MHz, Sing-around technique in a fixed-path interferometer, m1 = 0.0697 | 1503 ± 1.2
298.15 K, Frequency=3 MHz, Sing-around technique in a fixed-path interferometer, m1 = 0.0819 | 1503.6 ± 1.2
298.15 K, Frequency=3 MHz, Sing-around technique in a fixed-path interferometer, m1 = 0.0899 | 1504.7 ± 1.2
298.15 K, Frequency=3 MHz, Sing-around technique in a fixed-path interferometer, m1 = 0.0963 | 1505.2 ± 1.2
298.15 K, Frequency=3 MHz, Sing-around technique in a fixed-path interferometer, m1 = 0.11 | 1506.4 ± 1.2
298.15 K, Frequency=3 MHz, Sing-around technique in a fixed-path interferometer, m1 = 0.1184 | 1507.1 ± 1.2
298.15 K, Frequency=3 MHz, Sing-around technique in a fixed-path interferometer, m1 = 0.1302 | 1508 ± 1.2
298.15 K, Frequency=3 MHz, Sing-around technique in a fixed-path interferometer, m1 = 0.1401 | 1508.9 ± 1.3
298.15 K, Frequency=3 MHz, Sing-around technique in a fixed-path interferometer, m1 = 0.1507 | 1509.8 ± 1.2
298.15 K, Frequency=3 MHz, Sing-around technique in a fixed-path interferometer, m1 = 0.1601 | 1510.3 ± 1.2

Settings | mass density [kg/m3]
278.15 K, Pycnometric method, m1 = 0.0501 | 1001.79 ± 0.28
278.15 K, Pycnometric method, m1 = 0.0614 | 1002.2 ± 0.28
278.15 K, Pycnometric method, m1 = 0.0701 | 1002.52 ± 0.28
278.15 K, Pycnometric method, m1 = 0.082 | 1002.95 ± 0.28
278.15 K, Pycnometric method, m1 = 0.091 | 1003.28 ± 0.29
278.15 K, Pycnometric method, m1 = 0.1004 | 1003.62 ± 0.29
278.15 K, Pycnometric method, m1 = 0.1099 | 1003.97 ± 0.29
278.15 K, Pycnometric method, m1 = 0.1219 | 1004.4 ± 0.29
278.15 K, Pycnometric method, m1 = 0.1296 | 1004.68 ± 0.3
278.15 K, Pycnometric method, m1 = 0.1411 | 1005.1 ± 0.3
278.15 K, Pycnometric method, m1 = 0.1515 | 1005.48 ± 0.3
278.15 K, Pycnometric method, m1 = 0.1618 | 1005.86 ± 0.3
288.15 K, Vibrating tube method, m1 = 0.0502 | 1000.8 ± 0.11
288.15 K, Vibrating tube method, m1 = 0.0601 | 1001.13 ± 0.11
288.15 K, Vibrating tube method, m1 = 0.07 | 1001.47 ± 0.12
288.15 K, Vibrating tube method, m1 = 0.0801 | 1001.8 ± 0.12
288.15 K, Vibrating tube method, m1 = 0.0901 | 1002.14 ± 0.12
288.15 K, Vibrating tube method, m1 = 0.1003 | 1002.49 ± 0.13
288.15 K, Vibrating tube method, m1 = 0.1101 | 1002.82 ± 0.13
288.15 K, Vibrating tube method, m1 = 0.1202 | 1003.16 ± 0.13
288.15 K, Vibrating tube method, m1 = 0.13 | 1003.49 ± 0.14
288.15 K, Vibrating tube method, m1 = 0.1401 | 1003.83 ± 0.14
288.15 K, Vibrating tube method, m1 = 0.1504 | 1004.18 ± 0.15
288.15 K, Vibrating tube method, m1 = 0.1603 | 1004.51 ± 0.15
298.15 K, Vibrating tube method, m1 = 0.0486 | 998.75 ± 0.11
298.15 K, Vibrating tube method, m1 = 0.0601 | 999.01 ± 0.11
298.15 K, Vibrating tube method, m1 = 0.0697 | 999.32 ± 0.11
298.15 K, Vibrating tube method, m1 = 0.0819 | 999.68 ± 0.12
298.15 K, Vibrating tube method, m1 = 0.0899 | 999.97 ± 0.12
298.15 K, Vibrating tube method, m1 = 0.0963 | 1000.19 ± 0.12
298.15 K, Vibrating tube method, m1 = 0.11 | 1000.61 ± 0.13
298.15 K, Vibrating tube method, m1 = 0.1184 | 1000.89 ± 0.13
298.15 K, Vibrating tube method, m1 = 0.1302 | 1001.2 ± 0.13
298.15 K, Vibrating tube method, m1 = 0.1401 | 1001.54 ± 0.15
298.15 K, Vibrating tube method, m1 = 0.1507 | 1001.93 ± 0.14
298.15 K, Vibrating tube method, m1 = 0.1601 | 1002.17 ± 0.13

O [water] + COC(=O)[C@@H](N)C(C)C.Cl
Settings | speed of sound [m/s]
278.15 K, Frequency=2 MHz, Linear variable-path acoustic interferometer, m2 = 0 | 1426.2 ± 2

Settings | mass density [kg/m3]
278.15 K, Pycnometric method, m2 = 0 | 999.96 ± 0.28
